# Test system: PYK-2
# Assay: Tyrosine phosphorylation of PYK-2 in NIH3T3 cell lines that overexpress PYK-2
# Format: cell-based, mouse
# Conditions: NIH3T3 cells overexpressing PYK-2 / PYK-2-HA; TPA 6 μM, 15 min at 37° C.
# Method: Stable cell lines of NIH3T3 that overexpress PYK2 were established by contransfection of PYK2 subcloned into pLSV together with pSV2neo utilizing lipofectamine reagent (GIBCO BRL). Following transfection the cells were grown in Dulbecco's modified Eagle's medium containing 10% fetal bovine serum and 1 mg/ml G418. Transient transfections into 293 cells were performed by using the calcium phosphate technique (*).
# The PYK-2 cDNA cloned in PLSV was cotransfected with pSV2neo into PC12 cells and NIH3T3 in order to establish stable cell lines. G418 resistant colonies were screened by immunoprecipitating and immunoblotting.
# NIH3T3 cell lines were established that overexpress the PYK-2 and the PYK-2-HA protein. […] The level of phosphorylation is not so high.
smiles,measurement,value
"CCCCCCCCCCCCCC(=O)O[C@@H]1[C@@H](C)[C@@]2(O)[C@@H](C=C(CO)C[C@]3(O)C(=O)C(C)=C[C@@H]23)[C@@H]2C(C)(C)[C@]12OC(C)=O [PMA, phorbol 12-myristate 13-acetate]",tyrosine phosphorylation of PYK-2 in response to the agent,stronger effect
